From patent publication US20260216345A1, “M6PR BINDING COMPOUNDS AND CONJUGATES” (Lycia Therapeutics, Inc., priority 2023, published 2026) come the findings set out here.

Molecules are shown by their SMILES. Entries after “also recorded” stand apart in the source; their conditions may differ.

Data set [1] addresses T1, CI-M6PR (Homo sapiens, UniProt P11717). As to the kind of experiment: Human CI-M6PR binding assay (ELISA). The following applies: for binding affinity to M6PR, rank among the conjugates tested: matuzumab conjugates (FIGS. 7A-7F), I-7 at d8 (DAR 8), I-11 at d4 (DAR 4). On the set-up: purchased R&D 6418-GR-050. How it is done:
Nunc black solid bottom MaxiSorp plates were allowed to incubate overnight at 4° C. coated with 1 μg/mL of recombinant human CI-M6PR protein (R&D, 6418-GR-050) in 50 μL PBS. The next day, coating was decanted and plates were washed 3× with PBS. Wells were blocked with 350 μL of 3% BSA-PBS for 1 hour at room temperature. […] 50 μL of diluted conjugates were added to the plate and allowed to incubate at room temperature for 2 hours. After incubation, solutions in plate were decanted and washed with 350 μL of 0.05% PBS-Tween20 three times, drying the plate each wash on a clean paper towel. 50 μL of peroxidase AffiniPure Mouse Anti-Human IgG (Jackson Immuno, 209-035-088) diluted in 3% BSA-PBS to […] was added to the plate and allowed to incubate for 1 hour at room temperature in the dark. After incubation, solutions in plate were decanted and washed with 350 μL of 0.05% PBS-Tween20 3 times, drying the plate each wash on a clean paper towel. […] 50 μL of QuantaBlu solution was added to wells and allowed to incubate for 5-10 minutes at room temperature. After incubation, plates were read on a Perkin Elmer EnVision using photometric 340 and Umbelliferone 460 filter sets for excitation and emission, respectively. Data analysis and non-linear curve-fitting was performed using GraphPad Prism.
Background: An ELISA detects its analyte on a solid surface through an enzyme-linked reagent.
Target sequence in this assay (P11717 41-1365 limits assumed): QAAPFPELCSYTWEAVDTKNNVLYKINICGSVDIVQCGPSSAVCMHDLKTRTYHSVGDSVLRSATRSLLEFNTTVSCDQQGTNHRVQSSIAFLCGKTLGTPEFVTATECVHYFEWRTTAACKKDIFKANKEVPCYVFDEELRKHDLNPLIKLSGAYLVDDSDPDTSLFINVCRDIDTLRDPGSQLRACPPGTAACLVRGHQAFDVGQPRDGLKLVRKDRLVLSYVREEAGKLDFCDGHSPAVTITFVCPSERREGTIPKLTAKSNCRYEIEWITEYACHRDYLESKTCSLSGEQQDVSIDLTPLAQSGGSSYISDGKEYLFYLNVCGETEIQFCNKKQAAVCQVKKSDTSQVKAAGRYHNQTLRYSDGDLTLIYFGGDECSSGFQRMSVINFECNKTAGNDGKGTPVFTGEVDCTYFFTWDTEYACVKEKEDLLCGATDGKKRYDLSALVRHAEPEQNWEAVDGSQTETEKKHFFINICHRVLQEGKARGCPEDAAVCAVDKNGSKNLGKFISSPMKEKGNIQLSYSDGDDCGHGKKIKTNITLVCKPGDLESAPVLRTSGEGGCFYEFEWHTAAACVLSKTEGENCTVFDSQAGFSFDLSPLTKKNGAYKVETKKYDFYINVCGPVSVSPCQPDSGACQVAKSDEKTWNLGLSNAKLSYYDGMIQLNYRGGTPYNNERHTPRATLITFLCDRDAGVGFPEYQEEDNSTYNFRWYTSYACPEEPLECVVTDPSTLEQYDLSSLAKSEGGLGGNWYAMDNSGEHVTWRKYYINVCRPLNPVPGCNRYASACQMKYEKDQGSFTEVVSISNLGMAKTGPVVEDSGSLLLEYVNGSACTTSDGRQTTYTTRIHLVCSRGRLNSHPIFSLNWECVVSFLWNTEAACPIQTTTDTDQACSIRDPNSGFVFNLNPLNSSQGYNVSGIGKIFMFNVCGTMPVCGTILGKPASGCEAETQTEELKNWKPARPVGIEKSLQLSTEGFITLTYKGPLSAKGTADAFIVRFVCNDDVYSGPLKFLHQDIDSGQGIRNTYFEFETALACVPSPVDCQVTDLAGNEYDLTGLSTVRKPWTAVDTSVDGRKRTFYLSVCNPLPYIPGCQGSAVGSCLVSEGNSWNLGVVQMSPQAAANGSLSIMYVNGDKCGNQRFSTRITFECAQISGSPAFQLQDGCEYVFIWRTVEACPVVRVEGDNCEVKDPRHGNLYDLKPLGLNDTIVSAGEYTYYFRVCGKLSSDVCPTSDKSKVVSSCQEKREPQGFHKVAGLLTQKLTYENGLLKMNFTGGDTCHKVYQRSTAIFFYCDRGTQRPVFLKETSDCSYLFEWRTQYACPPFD

Data set [2] deals with Jurkat cells. Put plainly: Uptake of IgE-Alexa488 target protein in Jurkat cells. Format: cell-based. How it is done:
The omalizumab conjugates of Example 142 were bound to IgE-Alexa488 (prepared according to Example 144), as follows: equal molar ratios of omalizumab (anti-IgE) conjugate and IgE-Alexa488 were added in tissue culture media for 30 minutes at room temperature. The resulting anti-IgE conjugate:IgE antibody-Alexa488 compositions were added to Jurkat cells (100 k cells/50 ul per well, n=2), and Alexa488 fluorescence levels in the cells were measured at 1 hour by flow cytometry. As the fluorescently labelled target (IgE antibody) accumulates in cells, the fluorescence presents a way to measure total intracellular uptake by cells over time.

Data set [3] deals with T1, CI-M6PR. Put plainly: CI-M6PR SPR binding assay. The following applies: omalizumab conjugates at DAR of about 4; relative to 529 and 552. As for the experimental part:
The CI-M6PR binding affinities of omalizumab (anti-IgE) conjugates of Table 19 were also assessed via SPR binding assay. […] At equivalent DAR (m) values, the koff rate of the omalizumab (anti-IgE) conjugates was 552>529>570.
Background: Surface plasmon resonance follows binding to a sensor surface in real time, without labels.
Target sequence in this assay (P11717 41-2491): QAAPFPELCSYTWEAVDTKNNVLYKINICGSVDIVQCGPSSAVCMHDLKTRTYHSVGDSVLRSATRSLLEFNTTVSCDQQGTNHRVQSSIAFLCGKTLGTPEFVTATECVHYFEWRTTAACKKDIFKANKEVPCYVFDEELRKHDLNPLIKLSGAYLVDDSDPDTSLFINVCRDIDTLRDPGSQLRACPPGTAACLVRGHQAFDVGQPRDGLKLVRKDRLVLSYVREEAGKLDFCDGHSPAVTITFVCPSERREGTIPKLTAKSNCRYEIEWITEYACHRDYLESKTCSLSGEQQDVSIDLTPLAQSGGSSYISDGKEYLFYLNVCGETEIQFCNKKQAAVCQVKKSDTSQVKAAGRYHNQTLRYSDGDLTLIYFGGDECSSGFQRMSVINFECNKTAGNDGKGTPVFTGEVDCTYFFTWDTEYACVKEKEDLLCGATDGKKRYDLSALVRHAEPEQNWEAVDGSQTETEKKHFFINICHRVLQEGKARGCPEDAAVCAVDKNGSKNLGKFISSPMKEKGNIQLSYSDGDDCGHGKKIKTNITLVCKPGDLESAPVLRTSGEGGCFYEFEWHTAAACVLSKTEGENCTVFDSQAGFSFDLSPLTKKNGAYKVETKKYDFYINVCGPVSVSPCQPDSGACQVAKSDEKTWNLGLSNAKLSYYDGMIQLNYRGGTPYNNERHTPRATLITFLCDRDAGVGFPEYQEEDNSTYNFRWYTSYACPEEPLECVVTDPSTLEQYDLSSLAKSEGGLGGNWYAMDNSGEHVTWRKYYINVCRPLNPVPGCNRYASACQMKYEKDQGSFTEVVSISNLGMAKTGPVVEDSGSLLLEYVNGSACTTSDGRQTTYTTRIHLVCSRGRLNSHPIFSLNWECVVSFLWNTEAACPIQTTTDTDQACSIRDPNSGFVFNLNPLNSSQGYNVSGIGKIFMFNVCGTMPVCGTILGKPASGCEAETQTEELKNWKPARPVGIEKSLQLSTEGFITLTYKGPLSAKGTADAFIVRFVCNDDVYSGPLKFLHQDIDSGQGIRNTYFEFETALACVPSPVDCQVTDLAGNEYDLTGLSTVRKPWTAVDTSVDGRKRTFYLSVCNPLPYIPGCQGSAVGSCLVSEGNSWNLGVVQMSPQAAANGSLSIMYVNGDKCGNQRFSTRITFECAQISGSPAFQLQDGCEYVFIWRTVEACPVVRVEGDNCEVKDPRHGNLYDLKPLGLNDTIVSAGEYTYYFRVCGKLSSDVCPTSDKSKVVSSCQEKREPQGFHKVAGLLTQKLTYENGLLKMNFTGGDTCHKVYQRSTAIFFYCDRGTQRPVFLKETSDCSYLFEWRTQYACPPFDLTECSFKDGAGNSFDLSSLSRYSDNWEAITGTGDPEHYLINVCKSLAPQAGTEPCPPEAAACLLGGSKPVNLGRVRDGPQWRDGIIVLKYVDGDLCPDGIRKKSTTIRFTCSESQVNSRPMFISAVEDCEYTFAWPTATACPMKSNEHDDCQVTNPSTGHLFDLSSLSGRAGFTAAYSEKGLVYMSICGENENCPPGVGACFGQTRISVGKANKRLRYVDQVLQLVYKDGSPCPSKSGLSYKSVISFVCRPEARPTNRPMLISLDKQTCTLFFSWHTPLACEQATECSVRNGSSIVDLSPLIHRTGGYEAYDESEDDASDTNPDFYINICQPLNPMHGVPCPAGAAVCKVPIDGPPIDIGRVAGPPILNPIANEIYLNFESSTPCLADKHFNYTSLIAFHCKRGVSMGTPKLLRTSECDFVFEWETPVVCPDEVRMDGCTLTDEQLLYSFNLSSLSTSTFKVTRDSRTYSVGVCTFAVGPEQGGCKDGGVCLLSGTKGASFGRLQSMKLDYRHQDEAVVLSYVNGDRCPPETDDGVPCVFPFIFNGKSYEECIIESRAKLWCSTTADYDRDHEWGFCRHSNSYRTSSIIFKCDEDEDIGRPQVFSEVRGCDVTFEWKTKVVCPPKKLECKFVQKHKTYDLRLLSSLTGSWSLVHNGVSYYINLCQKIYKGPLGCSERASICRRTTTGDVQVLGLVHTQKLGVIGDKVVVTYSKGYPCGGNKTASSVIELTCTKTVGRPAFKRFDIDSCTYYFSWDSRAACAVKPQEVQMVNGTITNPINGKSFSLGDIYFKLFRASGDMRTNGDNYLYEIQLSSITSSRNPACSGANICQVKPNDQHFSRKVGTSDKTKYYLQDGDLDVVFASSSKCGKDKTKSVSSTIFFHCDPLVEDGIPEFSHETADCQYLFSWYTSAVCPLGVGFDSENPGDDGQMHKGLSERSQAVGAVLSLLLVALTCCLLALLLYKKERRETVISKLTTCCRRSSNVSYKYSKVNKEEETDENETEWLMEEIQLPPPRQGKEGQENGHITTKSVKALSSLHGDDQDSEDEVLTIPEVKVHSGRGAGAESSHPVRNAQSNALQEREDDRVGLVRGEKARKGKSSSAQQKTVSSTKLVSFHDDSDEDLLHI

Data set [4] in a line: Serum pharmacokinetic analysis of rIgG1 (anti-IgG2a) antibody conjugates. Format: in vivo, mice. The conditions noted are these: intravenous 10 μg/mouse, compared to Compound I-7. How it is done:
A pharmacokinetic analysis of the rIgG1 (anti-IgG2a) antibody conjugates described in the previous example was performed in mice. In particular, […] mice were intravenously administered each rIgG1 antibody conjugate at 10 μg/mouse (5 mice per group). Blood was collected at 0.5, 1, 2, 6, and 24 hours and serum rIgG1 was analyzed using an ELISA kit (Abcam) according to the manufacturer's instructions. Samples were run across 3 different plates with unconjugated rIgG1 controls (UNLB-anti-IgG2a rIgG1) included on all 3 plates. FIGS. 8A-8C show the serum levels of anti-IgG2a conjugated to Compound 1-7 (dar8) and (dar4) (FIG. 8A), anti-IgG2a conjugated to Compound I-10 and anti-IgG2a conjugated to Compound I-11 (FIG. 8B), and anti-IgG2a conjugated to Compound I-9 and anti-IgG2a conjugated to Compound I-12 (FIG. 8C) over time.

The test system of data set [5] is Jurkat cells. Put plainly: Uptake of IgG2a-Alexa488 into Jurkat cells. The conditions noted are these: anti-IgG2a conjugates, 1 hour and 24 hours. The data set is classed as cell-based. As for the experimental part:
The anti-IgG2a conjugates were bound to IgG2a-Alexa488, as follows: equal molar ratios of anti-IgG2a and IgG2a-Alexa488 were added in tissue culture media for 30 minutes at room temperature. The resulting anti-IgG2a:IgG2a antibody-Alexa488 compositions were added to Jurkat cells (100 k cells/50 ul per well, n=2), and Alexa488 fluorescence levels were measured (via Alexa488 measurement) at 1 hour and 24 hours by flow cytometry. As the fluorescently labelled target (IgG2a antibody) accumulates in cells, the fluorescence presents a way to measure total intracellular uptake by cells over time.

Data set [6] has as its target T2, M6PR (Domains 1-9) (Homo sapiens, UniProt P11717).
T2 construct: with 100 nM M6PR (Domains 1-9, R&D Systems) and 1 nM probe; purchased R&D Systems
Put plainly: General M6PR binding assay (fluorescence polarization). The following applies: 100 nM M6PR, 1 nM probe, 2 hr incubation. How it is done:
M6PR binding was measured in black 96-well plates using a fluorescence polarization assay. A fluorescent probe consisting of a reference M6Pn ligand linked to Cy5 was synthesized. Test compounds were resuspended in DMSO and 3-fold serial dilutions were made at 100× final concentrations. Binding reactions were conducted in 100 μl final volume in 20 mM HEPES (pH 7.5) 100 mM NaCl 0.015% o Tween-20 1% DMSO with 100 nM M6PR (Domains 1-9, R&D Systems) and 1 nM probe. Fluorescence polarization was measured using λex=620 nm, λem=688 nm on an Envision plate reader (Perkin Elmer) after 2 hr incubation time. Dose responses were conducted in duplicate and normalized to the response with DMSO (high) and 1 μM reference compound (low) on each plate. IC50 values were determined by fitting to 4-parameter curves in GraphPad Prism.
Background: In fluorescence polarisation assays a small probe gives low polarisation when free and higher when bound to something large.

Where [7] appears, read: omalizumab conjugates of Table 15B, Jurkat cells, 1 hour (FIG. 18-21).
Where [8] appears, read: omalizumab conjugates of Table 19, Jurkat cells (FIG. 23).
The mark [9] stands for this setting: omalizumab conjugates of Table 15A, Jurkat cells, 1 hour (FIG. 15-17).

T2 sequence (P11717 41-1365 limits assumed): as the sequence (P11717 41-1365 limits assumed) above

On to `O=C(CCOCCOCCOCCOCCn1cc(CCCCNC(=S)Nc2ccc(O[C@H]3O[C@H](CCP(=O)(O)O)[C@@H](O)[C@H](O)[C@@H]3O)cc2)nn1)Oc1c(F)c(F)c(F)c(F)c1F` [520 (I-7)], for which the “binding affinity to M6PR, rank among the conjugates tested” value in data set [1] is recorded as “highest”.

In the case of `O=C(CCOCCn1cc(CCO[C@H]2O[C@H](CCP(=O)(O)O)[C@@H](O)[C@H](O)[C@@H]2O)nn1)Oc1c(F)c(F)c(F)c(F)c1F` [605 (I-11)], the “binding affinity to M6PR, rank among the conjugates tested” value in data set [1] is recorded as “lowest binding affinity”.

For `O=C(NCCCCc1cn(CCOCCOCCOCCOCCC(=O)Oc2c(F)c(F)c(F)c(F)c2F)nn1)Nc1ccc(S[C@H]2O[C@H](CCP(=O)(O)O)[C@@H](O)[C@H](O)[C@@H]2O)cc1` [Compound 552], the figures for the “cellular uptake activity of Alexa488 labeled-target IgE” value (shortened to “cellular uptake activity”) in data set [2] (setting [7]) and in data set [2] (setting [8]) were “comparable activity; also recorded: more activity when at m=6 loading versus m=4 loading” and “comparable by less activity”, respectively.

Regarding `O=C(NCCCCc1cn(CCOCCOCCOCCOCCC(=O)Oc2c(F)c(F)cc(F)c2F)nn1)Nc1ccc(O[C@H]2O[C@H](CCP(=O)(O)O)[C@@H](O)[C@H](O)[C@@H]2O)cc1` [Compound 558], the “cellular uptake activity” value in data set [2] (setting [9]) is on record as “active in this assay, although less active”.

Take `O=C(NCCCCc1cn(CCOCCOCCOCCOCCC(=O)Oc2c(F)c(F)c(F)c(F)c2F)nn1)Nc1ccc(S[C@@H]2O[C@H](CCP(=O)(O)O)[C@@H](O)[C@H](O)[C@@H]2O)cc1` [Compound 570]: the Kd entry in data set [3] is listed as “superior Kd”. Further, the “cellular uptake activity” value in data set [2] (setting [7]) and in data set [2] (setting [8]) was “superior activity” throughout.

For the molecule `CO[C@H]1O[C@H](COCCCCCc2cn(CCOCCOCCOCCOCCC(=O)Oc3c(F)c(F)c(F)c(F)c3F)nn2)[C@@H](O)[C@H](O)[C@@H]1O[C@H]1O[C@H](CCP(=O)(O)O)[C@@H](O)[C@H](O)[C@@H]1O` [Compound 659], the “cellular uptake activity” value in data set [2] (setting [7]) was “potent and comparable activity”.

Regarding `CO[C@H]1C[C@H](c2cn(CCOCCOCCOCCOCCOCCOCCC(=O)Oc3c(F)c(F)c(F)c(F)c3F)nn2)[C@@H](O)[C@H](O)[C@@H]1O[C@H]1O[C@H](CCP(=O)(O)O)[C@@H](O)[C@H](O)[C@@H]1O` [Compound 660], the “cellular uptake activity” value in data set [2] (setting [7]) was “potent and comparable activity”.

As to `O=C(NCCCCc1cn(CCOCCOCCOCCOCCC(=O)Oc2c(F)c(F)c(F)c(F)c2F)nn1)Nc1ccc(O[C@H]2C[C@H](CCP(=O)(O)O)[C@@H](O)[C@H](O)[C@@H]2O)cc1` [Compound 665], in data set [2] (setting [9]), the “cellular uptake activity” value is listed as “low activity”.

On to `O=C(CCOCCOCCOCCN(CCOCCOCCOCCn1cc(CCO[C@H]2O[C@H](CCP(=O)(O)O)[C@@H](O)[C@H](O)[C@@H]2O)nn1)CCOCCOCCOCCn1cc(CCO[C@H]2O[C@H](CCP(=O)(O)O)[C@@H](O)[C@H](O)[C@@H]2O)nn1)Oc1c(F)c(F)c(F)c(F)c1F` [Compound 716], for which the “cellular uptake activity” value in data set [2] (setting [9]) is listed as “inferior uptake”.

In the case of `O=C(CCOCCn1cc(CCO[C@H]2O[C@H](CCP(=O)(O)O)[C@@H](O)[C@H](O)[C@@H]2O)nn1)Oc1c(F)c(F)c(F)c(F)c1F` [Compound I-11], the half-life in mice entry in data set [4] was “longer half-life”. Further, the “binding affinity to M6PR compared to Compound I-7” value in data set [1] (conjugates of ligand linkers) was “weaker binding affinity”. For the same molecule, in data set [5], the “intracellular uptake of IgG2a-Alexa488” value is recorded as “sufficiently robust uptake”.

Usually IC50 stands for the concentration at which inhibition is half-maximal. A low value points to higher potency. In data set [6], `O=C(NCCCCc1cn(-c2cccnc2)nn1)Nc1ccc(O[C@@H]2O[C@H](CCP(=O)(O)O)[C@@H](O)[C@H](O)[C@@H]2O)cc1` [Compound P1] had a 50% inhibitory concentration (IC50) of 0.1 to 0.5 µM.

In turn, `O=C(NCCCCc1cn(-c2cccnc2)nn1)Nc1ccc(O[C@H]2O[C@H](CCP(=O)(O)O)[C@@H](O)[C@H](O)[C@@H]2O)cc1` [Compound P2] came in with a half-inhibitory concentration (IC50) in data set [6] of 0.1 to 0.5 µM.

`O=C(NCCCCc1cn(-c2cccnc2)nn1)Nc1ccc(S[C@@H]2O[C@H](CCP(=O)(O)O)[C@@H](O)[C@H](O)[C@@H]2O)cc1` [Compound P3] showed an IC50 in data set [6] of 0.1 to 0.5 µM.

`O=C(NCCCCc1cn(-c2cccnc2)nn1)Nc1ccc(S[C@H]2O[C@H](CCP(=O)(O)O)[C@@H](O)[C@H](O)[C@@H]2O)cc1` [Compound P4] displayed a 50% inhibitory concentration (IC50) in data set [6] of 0.1 to 0.5 µM.
